Measurements published in patent publication US7429564B2, “Oral insulin therapy” (Emisphere Technologies, Inc., priority 2002, dated 2008).

How the values were obtained:
[1] = Delivery agent plasma concentrations in monkeys after oral administration; assay type: in vivo; details: monkey, plasma, oral, 300 mg
Description: Similar results were obtained when delivery agents 1-3 were administered orally to monkeys and the plasma concentrations of the delivery agents monitored over time and the AUC calculated.

serum glucose = assay: Effective clinical dose of delivery agent in humans (delivery efficiency); assay type: in vivo, human; details: active agent heparin
Description: Next, delivery agents 1-3 were compared for the ability to efficiently transport an active agent across the GI mucosa in a biologically active form by determining the relationship between delivery agent dose, dose of active agent and the glucose response. The effective dose of delivery agent necessary to deliver a therapeutic dose of active agent and produce a therapeutic effect was measured. For delivery agent 3, the active agent was insulin, and the therapeutic effect was determined by the ability of the delivery agent/insulin combination to lower serum glucose by at least 10% within one hour post administration. For delivery agents 1 and 2, the active agent was heparin, and the therapeutic effect was determined by […]

[2] = Delivery agent plasma concentrations in humans after oral delivery agent capsules; assay type: in vivo, human; details: plasma; oral capsules, 750 mg, healthy human volunteers
Description: Delivery agents 1-3 were investigated for their ability to penetrate the GI mucosa. The plasma concentration of each delivery agent was measured in human subjects after oral administration of delivery agent loaded capsules as a measure of each delivery agent's penetration efficiency.
Blood sampling for plasma delivery agent concentration determination (2 mL in sodium heparin tube) were drawn 15 minutes before dosing, and at 5, 10, 15, 30, and 45 minutes and 1, 1.5, 2, 3, 4, 6, 8, and 12 hours post-dose (14 samples per treatment) for delivery agent measurements in all treatment groups.
Two 18-gauge IV lines were situated prior to dosing; one for blood sampling, and the other for potential infusion of 20% glucose for subjects in groups 2 and 3. The subjects in group 1 only had one cannula inserted. The blood samples were centrifuged at 3000 rpm for a period of fifteen minutes at a temperature from about 2° C. to 8° C., within one hour of sample collection. Using a plastic pipette and without disturbing the red cell layer, the plasma from the collection tube was pipetted in duplicate for each analysis, blood glucose, Human Insulin, C-peptide, delivery agent into pre-labeled polypropylene tubes. The samples were stored at −70° C. until analysis.
The indicated doses were ingested by healthy human volunteers and the plasma concentrations of the delivery agents were monitored over time and the area under the curve (AUC) calculated. […] Similarly, oral administration of 800 mg of delivery agent number 3 produced more than a 23 fold greater penetration of the GI mucosa in humans than did oral administration of 750 mg of delivery agent 2 having n equal to 9 alkyl.

blood glucose = assay: Example 7: postprandial blood glucose excursions after standardized breakfast, type 2 diabetic patients; assay type: in vivo, human
Description: A randomized, 3-period crossover, double-blind, double-dummy study was conducted in order to compare the effect (i.e., the postprandial pharmacokinetic and pharmacodynamic profiles) of an oral insulin formulation with that of s.c. administered short acting insulin on postprandial blood glucose excursions in Type 2 Diabetic subjects without any antidiabetic medication.
All patients received the same oral and SC injection treatments in a randomized sequence. […]
Blood samples for blood glucose determination (0.25 mL per sample) were taken at −1 min (baseline), 5 minutes after start of meal intake and thereafter in 5 minute intervals until 120 minutes, 10 minute intervals until 240 minutes, and 15 minute intervals until 360 minutes after start of meal intake (45 samples per session). Blood glucose concentrations were measured immediately after sample collection using an automated GOD method (Super GL Ambulance Glucose Analyzer, Ruhrtal Labortechnik, Delecke-Möhnesee, Germany). […]
For pharmacodynamic assessment, the following parameters were calculated: Maximal blood glucose excursion (BGmax), time to BGmax (tBGmax) Area under the blood glucose excursion curve in defined time-intervals (AUCBG 0-1h, AUCBG 0-2h, AUCBG 0-3h, AUCBG 0-4h, AUCBG 0-6h), maximal absolute blood glucose concentrations (BGabsmax), time to BGabsmax (tBGabsmax). […]

Row | AUC [1] [ng·h/mL] | AUC [2] [ng·h/mL] | Molecule | Effective clinical dose of delivery agent (serum glucose) [Mg] | Mean fasting blood glucose at baseline (−1 minute) (blood glucose; 12 U SC, dosed 15 min before meal, mean (range)) [mg/dL] | Time to maximal glucose excursion (median) (blood glucose; SC 12 U, 15 min before meal) [h]
1 | 82 | 2040 | O=C(O)CCCCCCCCCNC(=O)c1ccccc1O [2 (SNAD), reference compound] | 1500 |  | 
2 |  |  | SC short-acting insulin: subcutaneous injected short acting insulin, Humalog injection 100 U/ml from Eli Lilly |  | 143.11 | 1.3
3 | 45 | 3500 | O=C(O)CCCCCCCNC(=O)c1ccccc1O [1 (SNAC), reference compound] | 2400 |  | 
